For ten compounds, T/C results are on record in PubChem BioAssay AID236 (DTP/NCI, 2004).

The test system of this test is AK4 lymphoid leukemia ip, C3AKF1 mice, survival. The experiment in a line: NCI In Vivo Anticancer Drug Screen. Data for tumor model AK4 Lymphoid Leukemia (intraperitoneal) in C3AKF1 (CHKRF1) mice. To be noted: endpoint: median survival time, higher = longer survival. As to the method:
The antitumor activity of compounds was measured in mice bearing transplantable tumors. Survival or tumor size were measured and the results are expressed as the measurement made in the treated group (T) divided by the measurement made in the vehicle treated control group (C). The tumor model used in this assay is AK4 Lymphoid Leukemia (intraperitoneal) in C3AKF1 (CHKRF1) mice

The mark [1] stands for this setting: dose: 25.0 mg/kg/injection, schedule: Q01DX010 (ip), vehicle: saline.
[2] abbreviates: dose: 50.0 mg/kg/injection, schedule: Q01DX010 (ip), vehicle: saline.
[3] abbreviates: dose: 100.0 mg/kg/injection, schedule: Q01DX010 (ip), vehicle: saline.
Where [4] appears, read: dose: 200.0 mg/kg/injection, schedule: Q01DX010 (ip), vehicle: saline.
Setting [5] is: dose: 12.5 mg/kg/injection, schedule: Q01DX010 (ip), vehicle: saline.

Where “and” joins values, the source holds several entries; their conditions need not be identical. Equal entries are not always repeated. Inconclusive results and toxic doses are left out.

Consider `O=C1C(NC(=O)C2CCCCC2)=C(N2CC2)C(=O)C(NC(=O)C2CCCCC2)=C1N1CC1`, for which the T/C is, setting by setting: under setting [1], 90 % of control; under setting [2], 95 % of control and 100 % of control; under setting [3], 95 % of control and 100 % of control; under setting [4], 100 % of control and 110 % of control; (dose: 400.0 mg/kg/injection, schedule: Q01DX010 (ip), vehicle: saline) 116 % of control.
For `O=[n+]1c2c(n([O-])c3ccccc31)-c1cccc3cccc-2c13`, the T/C (dose: 3.13 mg/kg/injection, schedule: Q01DX010 (ip), vehicle: saline) was 100 % of control; the T/C (dose: 6.25 mg/kg/injection, schedule: Q01DX010 (ip), vehicle: saline) is 100 % of control; the T/C under setting [5] was 100 % of control; the T/C under setting [1] is 88 % of control and 94 % of control; the T/C under setting [2] is 88 % of control; the T/C under setting [3] is 88 % of control.
For `CN(C)c1nc(N(C)C)nc(N(C)C)n1`, the T/C runs as follows: (dose: 18.8 mg/kg/injection, schedule: Q01DX010 (ip), vehicle: saline) 94 % of control; (dose: 37.5 mg/kg/injection, schedule: Q01DX010 (ip), vehicle: saline) 100 % of control; (dose: 75.0 mg/kg/injection, schedule: Q01DX010 (ip), vehicle: saline) 94 % of control; (dose: 150.0 mg/kg/injection, schedule: Q01DX010 (ip), vehicle: saline) 100 % of control.
In the case of `CCN(CCNc1ccc(C)c2sc3cc(Cl)ccc3c(=O)c12)CC(C)O` (stereo not given), the T/C runs as follows: (dose: 31.3 mg/kg/injection, schedule: Q01DX010 (ip), vehicle: saline) 94 % of control; (dose: 62.5 mg/kg/injection, schedule: Q01DX010 (ip), vehicle: saline) 88 % of control and 94 % of control; (dose: 125.0 mg/kg/injection, schedule: Q01DX010 (ip), vehicle: saline) 94 % of control; (dose: 250.0 mg/kg/injection, schedule: Q01DX010 (ip), vehicle: saline) 88 % of control.
As to `Nc1nc(F)nc2c1ncn2C1OC(CO)C(O)C1O` (stereo not given), the T/C by setting is: (dose: 0.5 mg/kg/injection, schedule: Q01DX010 (ip), vehicle: saline) 105 % of control; (dose: 1.0 mg/kg/injection, schedule: Q01DX010 (ip), vehicle: saline) 100 % of control; (dose: 2.0 mg/kg/injection, schedule: Q01DX010 (ip), vehicle: saline) 100 % of control and 111 % of control; (dose: 4.0 mg/kg/injection, schedule: Q01DX010 (ip), vehicle: saline) 100 % of control and 105 % of control.
For `O=c1cn[nH]c(=O)[nH]1`, the T/C (dose: 32.0 mg/kg/injection, schedule: Q01DX006 (iv), vehicle: saline) is 88 % of control; the T/C (dose: 32.0 mg/kg/injection, schedule: Q01DX010 (ip), vehicle: saline) is 88 % of control; the T/C (dose: 32.0 mg/kg/injection, schedule: Q01DX010 (sc), vehicle: saline) is 88 % of control; the T/C (dose: 32.0 mg/kg/injection, schedule: Q02DX005 (im), vehicle: saline) is 94 % of control; the T/C (dose: 64.0 mg/kg/injection, schedule: Q01DX006 (iv), vehicle: saline) was 100 % of control; the T/C (dose: 64.0 mg/kg/injection, schedule: Q01DX010 (ip), vehicle: saline) was 88 % of control. Also, the T/C is 88 % of control (dose: 64.0 mg/kg/injection, schedule: Q01DX010 (sc), vehicle: saline); 105 % of control (dose: 64.0 mg/kg/injection, schedule: Q02DX005 (im), vehicle: saline); 88 % of control (dose: 100.0 mg/kg/injection, schedule: Q03DX Z (ip), vehicle: saline); 88 % of control and 94 % of control (dose: 125.0 mg/kg/injection, schedule: Q01DX001 (ip), vehicle: saline); 100 % of control (dose: 125.0 mg/kg/injection, schedule: Q01DX010 (oral), vehicle: saline); 111 % of control (dose: 125.0 mg/kg/injection, schedule: Q07DX Z (ip), vehicle: saline). The T/C reads like this: (dose: 128.0 mg/kg/injection, schedule: Q01DX006 (iv), vehicle: saline) 88 % of control; (dose: 128.0 mg/kg/injection, schedule: Q01DX010 (ip), vehicle: saline) 88 % of control; (dose: 128.0 mg/kg/injection, schedule: Q01DX010 (sc), vehicle: saline) 88 % of control; (dose: 128.0 mg/kg/injection, schedule: Q02DX005 (im), vehicle: saline) 122 % of control; (dose: 200.0 mg/kg/injection, schedule: Q03DX Z (ip), vehicle: saline) 100 % of control; (dose: 250.0 mg/kg/injection, schedule: Q01DX001 (ip), vehicle: saline) 94 % of control and 100 % of control. Also, the T/C is 94 % of control (dose: 250.0 mg/kg/injection, schedule: Q01DX010 (oral), vehicle: saline); 88 % of control (dose: 250.0 mg/kg/injection, schedule: Q07DX Z (ip), vehicle: saline); 105 % of control (dose: 256.0 mg/kg/injection, schedule: Q01DX006 (iv), vehicle: saline); 100 % of control (dose: 256.0 mg/kg/injection, schedule: Q01DX010 (ip), vehicle: saline); 105 % of control (dose: 256.0 mg/kg/injection, schedule: Q01DX010 (sc), vehicle: saline); 88 % of control (dose: 256.0 mg/kg/injection, schedule: Q02DX005 (im), vehicle: saline). Also, the T/C is 94 % of control (dose: 400.0 mg/kg/injection, schedule: Q03DX Z (ip), vehicle: saline); 94 % of control and 105 % of control (dose: 500.0 mg/kg/injection, schedule: Q01DX001 (ip), vehicle: saline); 111 % of control (dose: 500.0 mg/kg/injection, schedule: Q01DX010 (oral), vehicle: saline); 88 % of control (dose: 500.0 mg/kg/injection, schedule: Q07DX Z (ip), vehicle: saline); 94 % of control (dose: 800.0 mg/kg/injection, schedule: Q03DX Z (ip), vehicle: saline); 100 % of control and 105 % of control (dose: 1000.0 mg/kg/injection, schedule: Q01DX001 (ip), vehicle: saline). Besides, the T/C is 94 % of control (dose: 1000.0 mg/kg/injection, schedule: Q01DX010 (oral), vehicle: saline) and 100 % of control (dose: 1000.0 mg/kg/injection, schedule: Q07DX Z (ip), vehicle: saline).
Consider `NC(=O)c1ccc(NC(=O)CCC(=O)Nc2ccc(C(N)=O)cn2)nc1`, for which the T/C runs as follows: (dose: 0.63 mg/kg/injection, schedule: Q01DX010 (ip), vehicle: saline) 100 % of control; (dose: 1.25 mg/kg/injection, schedule: Q01DX010 (ip), vehicle: saline) 110 % of control; (dose: 2.5 mg/kg/injection, schedule: Q01DX010 (ip), vehicle: saline) 110 % of control; (dose: 5.0 mg/kg/injection, schedule: Q01DX010 (ip), vehicle: saline) 100 % of control.
As to `COc1cc(-c2ccc(Nc3ccccc3C(=O)O)c(OC)c2)ccc1Nc1ccccc1C(=O)O`, the T/C under setting [5] is 112 % of control; the T/C under setting [1] is 112 % of control and 122 % of control; the T/C under setting [3] was 162 % of control.
Take `CS(=O)(=O)OCC(O)C(O)C(O)C(O)COS(C)(=O)=O` (stereo not given): the T/C runs as follows: under setting [5], 112 % of control; under setting [1], 100 % of control and 105 % of control; under setting [2], 94 % of control; under setting [3], 87 % of control and 100 % of control; under setting [4], 100 % of control.
Turning to `Nc1nc(N)c2nc(CNc3ccc(C(=O)NC(CCC(=O)O)C(=O)O)cc3)cnc2n1` (stereo not given), the T/C is 120 % of control (dose: 0.05 mg/kg/injection, schedule: Q01DX010 (ip), vehicle: other); 160 % of control and 215 % of control (dose: 0.1 mg/kg/injection, schedule: Q01DX010 (ip), vehicle: other); 180 % of control and 300 % of control (dose: 0.2 mg/kg/injection, schedule: Q01DX010 (ip), vehicle: other).
